Measured values published in patent US20240165264A1, “T CELL ACTIVATION” (The University of Birmingham, priority 2022, published 2024).

What was measured:
[1] = test system: CD4+ T cells from the Nr4a3-FT mouse; assay: Flow cytometry analysis of T cell activation markers after magnetic force application to MNP-bound cells; assay type: cell-based; conditions: blockade of actin cytoskeletal dynamics
Method: (§1) Splenic tissue was sourced from Nr4a3—fluorescent timer (Nr4a3-FT) reporter mice or from Tg4 transgenic mice, kindly provided by the laboratories of Dr David Bending (University of Birmingham) or Professor David Wraith (University of Birmingham) respectively. CD4+ T cells were purified by negative selection as per the manufacturer's instructions (Invitrogen, magnisort mouse CD4+ enrichment kit, 8804-6821-74) and CD4+ T cell purity was ≥95% in all experiments. Isolated CD4+ T cells were treated with functionalized MNPs for 30 minutes on ice, to final concentrations of 5×10^5 cells and 50 μg/ml MNPs respectively. Cells were then washed three times in PBS by 5 minutes of centrifugation at 300 g, before resuspension at 1×10^6/ml and use in force application experiments.
(§2) Cells treated with MNPs were subjected to external magnetic force through use of the Magnetic Ion Channel Activation (MICA) platform for force application as previously described (Henstock et al., 2018; Hughes et al., 2008). […] In all experiments shown, oscillations were set at 1 Hz and the plate was positioned 3 mm away from the particles in the on position. Force was applied for time frames shown, before assessment of biological T cell activity as described herein.
Following force application for time frames indicated, cells were maintained in a 37° C. […]

Nr4a3-FT CD4+ T cells = assay: Force induced TCR downregulation (TCRlo) by flow cytometry; assay type: cell-based, mouse; conditions: Latrunculin A 0.25 and 1 μM; cells with 250 nm particles and force
Method: as §1, §2
Where indicated, cells were treated with Latrunculin A (Tocris, C973) to final concentrations of 0.25 and 1 μM. […]

C/C1=C/C(=O)O[C@@H]2C[C@@H](CC[C@H](C)/C=C\C=C\CC1)O[C@@](O)([C@@H]1CSC(=O)N1)C2 [Latrunculin A]
effect on force induced T cell activation [1]: prevents TCR downregulation and T cell activation | effect on force induced TCR downregulation (Nr4a3-FT CD4+ T cells): prevents force induced TCR downregulation | effect on population of cells that are TCRlo and Nr4a3 positive (Nr4a3-FT CD4+ T cells): prevents the establishment of a population of cells that are TCRlo and Nr4a3 positive
